Among the data in ChEMBL document CHEMBL1156135 (Bioorg Med Chem Lett, 2009) are IC50, selectivity ratio and Ratio values, retold here.

Data set [1] concerns A-375. The data set can be described thus: Antiproliferative activity against human A375 cells expressing b-Raf V600E mutant. In kind it is functional, cell-based.
Data set [2] in a line: Antiproliferative activity against human WM266.4 cells expressing b-Raf V600E mutant. The data set is classed as functional, cell-based. To be noted: WM 266-4.
For data set [3], the target named is Serine/threonine-protein kinase B-raf (Homo sapiens, UniProt P15056). Put plainly: Inhibition of B-Raf.
Chain of Serine/threonine-protein kinase B-raf (P15056 whole entry): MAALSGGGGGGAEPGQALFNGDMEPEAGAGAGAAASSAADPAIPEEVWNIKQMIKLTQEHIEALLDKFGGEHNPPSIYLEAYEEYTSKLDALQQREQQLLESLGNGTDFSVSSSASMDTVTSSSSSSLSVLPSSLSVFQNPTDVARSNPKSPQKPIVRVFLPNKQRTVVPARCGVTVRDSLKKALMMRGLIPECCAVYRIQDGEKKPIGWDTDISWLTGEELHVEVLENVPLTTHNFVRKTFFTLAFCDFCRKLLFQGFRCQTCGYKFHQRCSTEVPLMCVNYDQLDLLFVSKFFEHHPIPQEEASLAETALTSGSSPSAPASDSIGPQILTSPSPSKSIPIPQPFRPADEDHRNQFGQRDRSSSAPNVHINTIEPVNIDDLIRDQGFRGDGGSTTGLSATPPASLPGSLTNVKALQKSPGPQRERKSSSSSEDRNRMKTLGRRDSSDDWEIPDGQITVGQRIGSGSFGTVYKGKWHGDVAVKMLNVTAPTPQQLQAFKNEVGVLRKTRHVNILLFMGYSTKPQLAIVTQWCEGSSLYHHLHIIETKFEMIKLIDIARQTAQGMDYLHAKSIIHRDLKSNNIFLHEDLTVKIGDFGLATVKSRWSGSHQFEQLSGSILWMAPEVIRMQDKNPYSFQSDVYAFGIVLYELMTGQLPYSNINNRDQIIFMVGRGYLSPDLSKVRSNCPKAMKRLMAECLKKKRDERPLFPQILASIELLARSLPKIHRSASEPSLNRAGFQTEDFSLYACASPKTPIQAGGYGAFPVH
The nature of data set [4]: Therapeutic index, ratio of IC50 for human Caco-2 cells expressing wild type b-Raf to IC50 for human WM266.4 cells expressing b-Raf V600E mutant. The data set is classed as cell-based. The settings on record: read-out: Ratio IC50.
A short description of data set [5]: Therapeutic index, ratio of IC50 for human Caco-2 cells expressing wild type b-Raf to IC50 for human A375 cells expressing b-Raf V600E mutant. In kind it is cell-based. To be noted: read-out: Ratio IC50.
In data set [6] the test system is Caco-2. Put plainly: Antiproliferative activity against human Caco-2 cells expressing wild type b-Raf. The data set is classed as functional, cell-based.
Data set [7] is described as follows: Selectivity for B-raf over p38alpha.

`CC(C)N1C2CCC1CC(c1ccnc3c(-c4cccc5[nH]ncc45)c(-c4ccncc4)nn13)C2` (stereo unspecified): the IC50 in data set [1] is 1.96 µM; in data set [2] it was 1.75 µM.

With `CCOC(=O)N1C2CCC1CC(c1ccnc3c(-c4ccc(C)c(O)c4)c(-c4ccncc4)nn13)C2` (stereo unspecified), the IC50 in data set [1] turned out to be 0.57 µM; in data set [2], 0.23 µM.

In turn, `CCOC(=O)N1C2CCC1CC(c1ccnc3c(-c4ccc(F)c(F)c4)c(-c4ccncc4)nn13)C2` (stereo unspecified) gave an IC50 in data set [3] of 0.302 µM.

As for `CCN1C2CCC1CC(c1ccnc3c(-c4cccc5[nH]ncc45)c(-c4ccncc4)nn13)C2` (stereo unspecified), the IC50 stood at 0.0466 µM in data set [3], 2.9 µM in data set [1] and 2.4 µM in data set [2].

Take `CCOC(=O)N1C2CCC1CC(c1c(C)cnc3c(-c4cccc5[nH]ncc45)c(-c4ccncc4)nn13)C2` (stereo unspecified): the IC50 turned out to be 0.0084 µM in data set [3], 1.22 µM in data set [1] and 1.87 µM in data set [2].

In the case of `CN1C2CC(CO)C1Cc1cnc3c(-c4ccc(Cl)c(O)c4)c(-c4ccncc4)nn3c12` (stereo unspecified), the IC50 was 0.0006 µM in data set [3], 1.7 µM in data set [1] and 0.75 µM in data set [2].

On to `CC(=O)N1C2CCC1CC(c1ccnc3c(-c4cccc5[nH]ncc45)c(-c4ccncc4)nn13)C2` (stereo unspecified), for which the IC50 is 2.54 µM in data set [1] and 1.8 µM in data set [2].

As to `CCOC(=O)N1C2CCC1CC(c1ccnc3c(-c4cccc(O)c4)c(-c4ccncc4)nn13)C2` (stereo unspecified), the midpoint of inhibition in data set [2], the IC50, lay at 0.24 µM.

Turning to `CCNC(=O)N1C2CCC1CC(c1ccnc3c(-c4cccc5[nH]ncc45)c(-c4ccncc4)nn13)C2` (stereo unspecified), the IC50 in data set [1] came out at 2.81 µM; in data set [2] it was 1.52 µM.

In data set [3], `CCOC(=O)N1C2CCC1CC(c1ccnc3c(-c4ccc(-c5nnco5)cc4)c(-c4ccncc4)nn13)C2` (stereo unspecified) returned a concentration for half-maximal inhibition (IC50) of 0.151 µM.

Turning to `CS(=O)(=O)N1C2CCC1CC(c1ccnc3c(-c4cccc5[nH]ncc45)c(-c4ccncc4)nn13)C2` (stereo unspecified), the IC50 was determined as 0.95 µM in data set [1] and 0.57 µM in data set [2].

In the case of `COC(=O)C1CC2c3c(cnc4c(-c5ccc(Cl)c(O)c5)c(-c5ccncc5)nn34)CC1N2C` (stereo unspecified), the IC50 in data set [3] came to 0.0016 µM; in data set [1], 2.3 µM; in data set [2], 1.1 µM.

Regarding `CCOC(=O)N1C2CCC1CC(c1ccnc3c(-c4ccc(C(F)(F)F)c5[nH]ncc45)c(-c4ccncc4)nn13)C2` (stereo unspecified), the IC50 was 0.0044 µM in data set [3], 2.5 µM in data set [1] and 2.3 µM in data set [2].

For the compound `Oc1cccc(-c2c(-c3ccncc3)nn3c(C4CC5CCC(C4)N5)ccnc23)c1` (stereo unspecified), the IC50 in data set [1] was determined as 2.25 µM; in data set [2], 0.22 µM.

As for `CCN1C2CCC1CC(c1ccnc3c(-c4ccc(C#N)c(O)c4)c(-c4ccncc4)nn13)C2` (stereo unspecified), the IC50 in data set [1] and in data set [2] was greater than 10 µM throughout.

In the case of `CCN1C2CCC1CC(c1ccnc3c(-c4ccc(Cl)c(O)c4)c(-c4ccncc4)nn13)C2` (stereo unspecified), the figures for the IC50 in data set [3], in data set [1] and in data set [2] were 0.0005 µM, 0.32 µM and 0.23 µM, respectively.

For the compound `CCOC(=O)N1C2CCC1CC(c1ccnc3c(-c4cccc5[nH]ncc45)c(-c4ccncc4)nn13)C2` (stereo unspecified), the selectivity ratio in data set [4] was 2.7; in data set [5], 2.1. In addition, the values for the IC50 in data set [6], in data set [1] and in data set [2] were 0.8 µM, 0.38 µM and 0.3 µM, respectively.

With `CCOC(=O)N1C2CCC1CC(c1ccnc3c(-c4ccc5c(c4)NC(=O)C5)c(-c4ccncc4)nn13)C2` (stereo unspecified), in data set [3], the IC50 is greater than 1 µM.

On to `COc1cc(-c2c(-c3ccncc3)nn3c(C4CC5CCC(C4)N5)ccnc23)ccc1Cl` (stereo unspecified), for which the IC50 in data set [3] turned out to be 0.0085 µM; in data set [1] it was 2.6 µM; in data set [2], 3.5 µM.

Consider `CN(C)C(=O)N1C2CCC1CC(c1ccnc3c(-c4cccc5[nH]ncc45)c(-c4ccncc4)nn13)C2` (stereo unspecified), for which the IC50 was determined as 3 µM in data set [1] and 2.14 µM in data set [2].

Regarding `CCN1C2CCC1CC(c1ccnc3c(-c4ccc(Cl)c5[nH]ncc45)c(-c4ccncc4)nn13)C2` (stereo unspecified), the IC50 came to 0.0044 µM in data set [3], 1.09 µM in data set [1] and 0.86 µM in data set [2].

Consider `CCOC(=O)N1C2CCC1CC(c1ccnc3c(-c4ccc5cc[nH]c5c4)c(-c4ccncc4)nn13)C2` (stereo unspecified), for which the figures for the IC50 in data set [1] and in data set [2] were 7.5 µM and greater than 10 µM, respectively.

As for `CCOC(=O)N1C2CCC1CC(c1ccnc3c(-c4ccc(Cl)c5[nH]ncc45)c(-c4ccncc4)nn13)C2` (stereo unspecified), the selectivity ratio is 19.3 in data set [4] and 9.4 in data set [5]. Further, the IC50 came to 0.0004 µM in data set [3], 0.58 µM in data set [1] and 0.28 µM in data set [2].

Regarding `OCCN1C2CCC1CC(c1ccnc3c(-c4cccc5[nH]ncc45)c(-c4ccncc4)nn13)C2` (stereo unspecified), the IC50 in data set [1] turned out to be 3.44 µM; in data set [2], 1.37 µM.

As to `CCOC(=O)N1C2CCC1CC(c1ccnc3c(-c4ccc(C)c5[nH]ncc45)c(-c4ccncc4)nn13)C2` (stereo unspecified), the results for the half-inhibitory concentration (IC50) in data set [1] and in data set [2] were 1 µM and 0.67 µM, respectively.

Consider `CCN1C2CCC1CC(c1ccnc3c(-c4ccc(Cl)c(OC)c4)c(-c4ccncc4)nn13)C2` (stereo unspecified), for which the figures for the IC50 in data set [1] and in data set [2] were 2.2 µM and 5.6 µM, respectively.

For `CS(=O)(=O)C1C2CCC1CC(c1ccnc3c(-c4ccc(Cl)c(O)c4)c(-c4ccncc4)nn13)C2` (stereo unspecified), the figures for the IC50 in data set [3], in data set [1] and in data set [2] were less than 0.002 µM, 0.27 µM and 0.09 µM, respectively.

As for `O=C(O)[C@H]1CCCN1C(=O)N1C2CCC1CC(c1ccnc3c(-c4cccc5[nH]ncc45)c(-c4ccncc4)nn13)C2` (stereo partly specified), the IC50 stood at 0.0021 µM in data set [3], 5.94 µM in data set [1] and 1.86 µM in data set [2].

`COc1cccc(-c2c(-c3ccncc3)nn3c(C4CC5CCC(C4)N5)ccnc23)c1` (stereo unspecified): the IC50 in data set [1] was 6.4 µM; in data set [2], 8.4 µM.

Compound `CCOC(=O)N1C2CCC1CC(c1ccnc3c(-c4ccc(Cl)c(OC)c4)c(-c4ccncc4)nn13)C2` (stereo unspecified) yielded an IC50 in data set [2] greater than 10 µM.

As for `CN1C2CC(S(=O)(=O)c3ccccc3)C1Cc1cnc3c(-c4ccc(Cl)c(O)c4)c(-c4ccncc4)nn3c12` (stereo unspecified), the IC50 amounted to 0.0008 µM in data set [3], 1 µM in data set [1] and 0.6 µM in data set [2].

Regarding `CCN1C2CCC1CC(c1ccnc3c(-c4ccc(F)c(O)c4)c(-c4ccncc4)nn13)C2` (stereo unspecified), the IC50 is 0.76 µM in data set [1] and 0.45 µM in data set [2].

Consider `CCOC(=O)N1C2CCC1CC(c1ccnc3c(-c4ccc(Cl)c(O)c4)c(-c4ccncc4)nn13)C2` (stereo unspecified), for which the results for the concentration for half-maximal inhibition (IC50) in data set [3] and in data set [2] were less than 0.002 µM and 0.12 µM, respectively.

`CCOC(=O)N1C2CCC1CC(c1ccnc3c(-c4cccc(OC)c4)c(-c4ccncc4)nn13)C2` (stereo unspecified): the half-inhibitory concentration (IC50) in data set [1] stood at 9 µM; in data set [2], 8 µM.

In turn, `CCOC(=O)N1C2CCC1CC(c1ccnc3c(-c4cccc5[nH]c(=O)[nH]c45)c(-c4ccncc4)nn13)C2` (stereo unspecified) displayed a half-inhibitory concentration (IC50) in data set [3] greater than 1 µM.

Consider `CCOC(=O)N1C2CCC1CC(c1ccnc3c(-c4ccc(F)c5[nH]ncc45)c(-c4ccncc4)nn13)C2` (stereo unspecified), for which the selectivity ratio stood at 12 in data set [4] and 5.8 in data set [5]. The IC50 in data set [1] is 0.62 µM; in data set [2], 0.3 µM. Also, the Ratio in data set [7] is 19.

With `CCOC(=O)N1C2CCC1CC(c1ccnc3c(-c4cccc5[nH]ccc45)c(-c4ccncc4)nn13)C2` (stereo unspecified), the IC50 in data set [3] was greater than 1 µM.

In the case of `CCN1C2CCC1CC(c1ccnc3c(-c4ccc(C(F)(F)F)c5[nH]ncc45)c(-c4ccncc4)nn13)C2` (stereo unspecified), the IC50 in data set [3] came to 0.045 µM; in data set [1], 1.7 µM; in data set [2], 2.9 µM.

In the case of `Oc1cc(-c2c(-c3ccncc3)nn3c(C4CC5CCC(C4)N5)ccnc23)ccc1Cl` (stereo unspecified), the IC50 in data set [1] amounted to 0.44 µM; in data set [2], 0.09 µM.

Regarding `CC(=O)N1C2CCC1CC(c1ccnc3c(-c4ccc(Cl)c(O)c4)c(-c4ccncc4)nn13)C2` (stereo unspecified), the figures for the IC50 in data set [1] and in data set [2] were 0.9 µM and 0.26 µM, respectively.

Regarding `CCN1C2CCC1CC(c1ccnc3c(-c4ccc(C)c5[nH]ncc45)c(-c4ccncc4)nn13)C2` (stereo unspecified), the IC50 was determined as 1.6 µM in data set [1] and 0.84 µM in data set [2].
